The values below come from patent US20230158176A1, “NEAR-INFRARED FLUORESCENT SMALL-MOLECULE PROBE, SYNTHESIS METHOD AND APPLICATION THEREOF” (Linyi University, priority 2021, published 2023).

The nature of data set [1]: In vitro photothermal efficiency under 808 nm laser radiation. It counts as physicochemical. Particulars: for highest temperature of the solution: 2.0 W/cm^2, solutions 0.2-1.2 mg/mL in PBS. The procedure: To evaluate in vitro thermogenesis of IR-780 solution and IR-780-F solution, 10 millimoles per litter (mM) IR-780-F solution dissolved in the dimethyl sulfoxide is used, and the IR-780-F solution is respectively diluted to the concentrations of 0.2 milligrams per milliliters (mg/mL), 0.4 mg/mL, 0.8 mg/mL, and 1.2 mg/mL with the phosphate buffered saline and these IR-780-F solutions and the phosphate buffered saline are evaluated. The IR-780 solution is prepared as above.
Temperature changes of the IR-780-F solutions and the phosphate buffered saline and temperature changes of the IR-780 solutions and the phosphate buffered saline are respectively recorded by using an infrared thermal imaging camera (a model of FLIR-E6). The phosphate buffered saline as a control group, 0.2 mg/mL of the IR-780-F solution and 0.2 mg/mL of the IR-780 solution, 0.4 mg/mL of the IR-780-F solution and 0.4 mg/mL of the IR-780 solution, 0.8 mg/mL of the IR-780-F solution and 0.8 mg/mL of the IR-780 solution, 1.2 mg/mL of the IR-780-F solution and 1.2 mg/mL of the IR-780 solution are all exposed to 808 nm laser radiation with a power density of 2.0 Watt per square centimeter (W/cm^2) to be measured and recorded the temperature changes.

In data set [2] the test system is murine mammary carcinoma cells (4T1 cells). The data set is described as follows: In vitro evaluation of cytotoxicity by CCK-8. Type of data set: cell-based. The following applies: 10 μM to 60 μM, incubated 1 h. The procedure:
Respective toxicity of the IR-780-F solution and the IR-780 solution with concentrations from 10 μM to 60 μM on murine mammary carcinoma cells (also referred to as 4T1 cells) is measured by cell counting kit-8 (CCK-8). Incubated 4T1 cells are collected and centrifuged to prepare cell suspensions, and a cell concentration is adjusted to 8×10^4 cells per milliliter. The 4T1 cells are transferred to 96-well plates, and 100 microliters (μL) 4T1 cells are added to each well, so that a density of the cells to be tested is about 8000 cells per well, and the number of the 96-well plates for experiment is two. The two 96-well plates inoculated with the cells to be tested are placed in an incubator at 37° C. for 12 h. One plate is incubated with the IR-780-F solutions with a concentration gradient from 10 μM to 60 μM for 1 h; the other plate is incubated with the IR-780 solutions with a concentration gradient from 10 μM to 60 μM for 1 h. After the end of incubation, CCK-8 reagent (a volume of 10 μL, a concentration of 5 mg/mL, i.e. 0.5% CCK-8 reagent) is immediately added to the each well and the two 96-well plates continue to incubate for 40 min. Finally, absorptivity and intensity of the each well are tested by an enzyme calibration, and cell viability of the control group is taken as 100%, and the cell viability of the test groups are taken as the percentage of the control group.

The nature of data set [3]: Molecular spectrum test (absorption and emission spectra). Type of data set: physicochemical. The following applies: for maximum emission wavelength: λex 740 nm. The procedure: A certain mass of the IR-780-F sample is weighed and dissolved in dimethyl sulfoxide (DMSO) to obtain a solving solution, and the quantitative solving solution is added to 2-[4-(2-hydroxyethyl)-1-piperazinyl]-ethanesulfonic acid (HEPES, also referred to as C8H18N2O4S) buffer solution to form a solution with a concentration of 10.0 micromoles per liter […] (containing 10% dimethyl sulfoxide) and an absorption spectrum of the IR-780-F sample is measured. Ultraviolet absorption spectrum is obtained by Agilent Ultraviolet-Vis spectrophotometer with a scanning wavelength range from 500 nanometers (nm) to 900 nm at a sweep rate of 1002 nanometers per minute (nm/min). Furthermore, addition quantitative solving solution is respectively added to methanol, acetonitrile, phosphate buffered saline (PBS buffer solution), HEPES buffer solution, bovine serum and adult serum to form a solution with a concentration of 10.0 μM (containing 10% dimethyl sulfoxide) to test an emission spectrum of the IR-780-F sample. Hitachi F-4600 […] is used to obtain FT-IR emission spectrum, of the scanning wavelength is from 750 nm to 900nm, an excitation wavelength λex is 740 nm, an excitation slit width is 5 nm, and an emission slit width is 5 nm.

Data set [4] deals with 4T1 tumor-bearing nude mice. Nature of the data set: In vivo NIR fluorescence imaging / distribution in tumor-bearing mice. Set-up: species or system BALB/c Nude mice. Particulars: 4 mg/kg via tail vein. As to the method:
(§1) The incubated 4T1 cells are collected by centrifugation, rinsed three times with PBS buffer solution to prepare cell suspensions, which are used a cell counter to count cell number. The cell suspensions are respectively diluted to desired concentrations with the PBS buffer solution. The pretreated 4T1 cells (about 1×10^6 per 100 μL) are injected subcutaneously into right hind legs of BALB/c Nude mice and tumor model mice are obtained after about one week.
In order to determine an optimal time for in vivo photothermal treatment with the IR-780-F, tissue permeability and distribution of the IR-780-F in tumor-bearing mice are examined by means of a whole animal near infrared (NIR) imaging system. An injection of the IR-780-F (containing 12.4% dimethyl sulfoxide) is prepared with PBS buffer solution. When the tumors in the tumor-bearing mice grow to a certain volume, 4 milligrams per kilogram of the tumor-bearing mice (mg/kg) IR-780-F is injected into the tumor-bearing mice via tail vein. The anesthetized nude mice are placed into a in vivo imaging apparatus (also referred to as living imaging apparatus) and subjected to fluorescence imaging at 0 h, 2 h, 4 h, 8 h, 12 h, 24 h, 48 h, 72 h, 96 h and 120 h. […] The organs are placed in the living imaging apparatus to observe fluorescence distribution of each organ.

Data set [5] concerns 4T1 tumor-bearing nude mice. The data set is described as follows: Photothermal efficiency at tumor location in vivo. Also on record: species or system BALB/c Nude mice. The following applies: IR-780-F+laser radiation group, intratumoral injection, laser 4 minutes. The procedure: as §1
The injection of the IR-780-F (containing 12.4% dimethyl sulfoxide) is prepared with PBS buffer solution for intratumoral injection. After 12 hours, the nude mice are anesthetized, imaged using a photothermal imager, and temperature changes are recorded. The tumor locations of the mice are irradiated with a laser for 4 minutes, and then the photothermal imaging is again performed on the corresponding tumor locations to record the corresponding temperature.

The test system of data set [6] is 4T1 tumor-bearing nude mice. Nature of the data set: Photothermal treatment effect in tumor-bearing mice. It counts as in vivo, BALB/c Nude mice. As to the method:
as §1
After successful tumor loading, mice with an average tumor diameter of about 10×10 mm are randomly divided into four groups (5 mice in each group): (1) control group: intratumoral injection of 0.1 mL of saline; (2) laser group: intratumoral injection of 0.1 mL of saline followed by a laser radiation (a wavelength of 808 nm, 2.0 W/cm^2, 4 min); (3) IR-780-F group: intratumoral injection of 0.1 mL (corresponding to 80 micrograms abbreviated μg) of the IR-780-F solution without the laser radiation; (4) IR-780-F+laser group: intratumoral injection of 80 μg of the IR-780-F solution followed by the laser radiation (a wavelength of 808 mn, 2.0 W/cm^2, 4 min). The mice are anesthetized after administration of the medicine, and the tumor locations of the mice are placed under the laser radiation. When the laser irradiated the tumor locations of the mice, the temperature of the tumor locations under the laser radiation are simultaneously recorded when measured by the thermal infrared imager.

With `CCCN1/C(=C/C=C2\CCCC(/C=C/C3=[N+](CCC)c4ccccc4C3(C)C)=C2Cl)C(C)(C)c2ccccc21.[I-]` [IR-780, reference compound], the “highest temperature of the solution” value in data set [1] was determined as 69.3 °C. Besides, the “cell viability of the 4T1 cells” value in data set [2] is listed as “decreases with the increase of the concentrations”.

In the case of `CC1(C)C(/C=C/C2=C(Cl)C(=C/C=C3/N(CCC(F)(F)F)c4ccccc4C3(C)C)/CCC2)=[N+](CCC(F)(F)F)c2ccccc21` [IR-780-F], the “Stoke shift value (difference between maximum emission wavelength and maximum absorption wavelength)” value in data set [3] was found to be 38 nm. Also, the maximum emission wavelength in data set [3] (in FBS) worked out at 820 nm; in data set [3] (in HAS), 818 nm; in data set [3] (in HEPES), 804 nm; in data set [3] (in MeCN), 816 nm; in data set [3] (in MeOH), 814 nm. This compound showed a maximum absorption wavelength in data set [3] (in HEPES, 10.0 μM, 10% dimethyl sulfoxide) of 773 nm. In data set [1], the “photothermal conversion effect compared with IR-780” value was “better photothermal conversion effect than that of the IR-780”. In addition, in data set [1], the “highest temperature of the solution” value was found to be 69.3 °C. Besides, the “cell viability of the 4T1 cells” value in data set [2] is given as “decreases with the increase of the concentrations”. Besides, the “fluorescence distribution in dissected organs and tumors” value in data set [4] (dissected five days later) was “mainly concentrated at the tumor location and there is weak fluorescence in the lungs”. Besides, the “distribution of near-infrared fluorescence in vivo” value in data set [4] (imaging 0-120 h) is given as “significant tumor targeting accumulation”. Further, the “surface temperature of the tumor locations” value in data set [5] came out at 52.9±0.2 °C. Moreover, the tumor size in data set [6] (IR-780-F group: 80 μg intratumoral without laser radiation, 12th day) was found to be 559±49 mm^3. For the same compound, the tumor growth entry in data set [6] (IR-780-F without laser, compared with laser alone and control PBS group, P>0.05) is listed as “does not show a significant inhibition”; in data set [6] (IR-780-F+laser radiation, P<0.01), “significantly inhibited”. In data set [6] (IR-780-F+laser group: 80 μg intratumoral, 808 nm, 2.0 W/cm^2, 4 min, 12th day), this compound returned a mean tumor size of 94±11 mm^3. In data set [6] (IR-780-F+laser radiation group, sacrificed at the 12th day), the “tumor volumes of excised tumors” value is recorded as “significantly smaller than those in the other three groups”.
